Source: the METLIN SMRT retention time set (Domingo-Almenara et al. 2019)

Assay: gradient 5% acetonitrile 3 min, to 50% in 2 min, to 85% in 15 min, held 3 min, 100 µL/min
Details: column: Zorbax Extend-C18 2.1 x 50 mm; eluents: water / acetonitrile, 0.1% formic acid
Method in brief: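 A Zorbax Extend-C18 column (2.1 × 50 mm, 1.8 μm) run at 100 μL/min with water and acetonitrile, both containing 0.1% formic acid, separated mixtures of ~100 pure standards. The HPLC was coupled to a quadrupole time-of-flight mass spectrometer operated in positive and negative ionization mode, with dead and dwell volumes of 40 μL and 900 μL. Each retention time was taken from a computationally picked adduct peak that was then manually inspected.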

Row | Compound | RP-LC retention time
1 | Cc1ccc(NC(=O)C2CCN(c3cc(N4CCSCC4)ncn3)CC2)cc1F | 734 s
2 | NS(=O)(=O)c1ccc(CCNC(=O)Cc2cc(-c3cccs3)on2)cc1 | 669 s
3 | O=C(Cn1c(=O)c(CCC(=O)NC2CCCC2)nc2ccccc21)Nc1ccc(Cl)cc1F | 885 s
4 | COc1cccc(N2CCCn3c2nc2c3c(=O)n(Cc3c(F)cccc3Cl)c(=O)n2C)c1 | 966 s
5 | CC(C)CCn1c(CCCC(=O)N2CCC(C(N)=O)CC2)nc2cccnc21 | 598 s
6 | CC(C)CCNc1ccc2nncn2n1 | 786 s
7 | Cc1ccc(C)c(N2CCN(C(=O)C3CCN(S(=O)(=O)c4cccc5nsnc45)CC3)CC2)c1 | 1070 s
8 | CN1CCN(C(=O)CN2C(=O)CCCc3cc(S(=O)(=O)N4CCCCCC4)ccc32)CC1 | 632 s
9 | CNC(=O)C1CCCN(C(=O)Nc2ccc(NC(=O)Nc3ccc(C)c(C)c3)cc2)C1 (configuration not stated) | 722 s
10 | O=C(Cc1c[nH]c2ccccc12)N1CCC(Oc2ccc(-c3noc(C4CC4)n3)cc2)C1 (configuration not stated) | 964 s
11 | CCCN(CC1CCOC1)C(=O)Nc1cccc(C)c1C (configuration not stated) | 818 s
12 | Cc1sc(-c2noc(C3CC3)n2)cc1S(=O)(=O)N1CCC(C(=O)NC2CCCCCC2)CC1 | 1080 s
13 | COc1ccc(OC)c(NC(=O)NC2CCN(c3ccc(F)cc3)C2=O)c1 (configuration not stated) | 716 s
14 | CCOC(=O)C1CCN(S(=O)(=O)c2ccc3onc(C(=O)N4CCCC4)c3c2)CC1 | 993 s
15 | COc1ccc(-c2noc(-c3ccc(NC(=O)c4ccc(Br)o4)cc3)n2)cc1 | 1190 s
16 | CC(C)c1cc(C(=O)NCc2ccc3c(c2)OCO3)nc2cc(-c3ccccn3)nn12 | 986 s
17 | Cc1cc(N(C)C)n2nc(CN(C)Cc3ccccc3)nc2n1 | 577 s
18 | O=C(CSc1nnc(-c2cccc(Br)c2)o1)c1ccc([N+](=O)[O-])cc1 | 1020 s
19 | CCN(CC)S(=O)(=O)c1ccc2c(c1)cc(C(=O)NCCN(C)C)n2C | 639 s
20 | O=C(Cc1csc(NC(=O)NC2CCCCC2)n1)NCc1ccco1 | 695 s
21 | COc1ccccc1NC(=O)N1C[C@@H](F)C[C@H]1C(=O)N1CCCCC1 | 677 s
22 | Cc1nc(Nc2nccc(-c3ccccc3)n2)nc2ccccc12 | 677 s
23 | O=C(NCCC1=CCCCC1)C(=O)NCC1CCN(Cc2ccco2)CC1 | 581 s

Row | Compound | RP-LC retention time
24 | Cc1cccc(S(=O)(=O)N2Cc3ccccc3CC2C(=O)NCc2ccco2)c1 (configuration not stated) | 1000 s
25 | CSc1ccccc1CN1CCC(CNC(=O)C(=O)NCC(F)(F)F)CC1 | 574 s
26 | CC(=O)c1cccc(NS(=O)(=O)c2ccc(F)c(Cl)c2)c1 | 839 s
27 | CNC(=O)CCc1cc2cc(C)ccc2[nH]c1=O | 623 s
28 | O=C(CSC1CCCC1)N1CCCC(c2nnc(-c3ccccc3F)s2)C1 (configuration not stated) | 994 s
29 | COc1ccc(N2CCN(C(=O)Cn3ncc4c(c3=O)N(C)C(=O)CS4)CC2)cc1 | 635 s
30 | CCc1ccc2oc(C(=O)NCC(c3ccc(OC)cc3)N(C)C)cc(=O)c2c1 (configuration not stated) | 656 s
31 | CCCn1c(=O)c(C)nc2cc(-c3noc(-c4ccc(F)cc4)n3)ccc21 | 1200 s
32 | Cc1ccc(-c2nnc(-c3nn(C)c4c3CN(S(=O)(=O)c3ccccc3C)CC4)o2)cc1 | 1020 s
33 | CSc1ccc(-c2nc3cnccn3c2Nc2cccc(C(=O)NCC3CCCO3)c2)cc1 (configuration not stated) | 748 s
34 | Cc1ccc2nc(CN3CCN(C(=O)Nc4ccccc4C)CC3)oc2c1 | 679 s
35 | Cc1nnc(-c2ccc(S(=O)(=O)N3CCN(C4CCCCC4)CC3)o2)o1 | 622 s
36 | Cc1ccc(NC(=O)N2CCc3nc(CNC(=O)C4CCC4)n(C)c3C2)cc1 | 598 s
37 | COc1ccc(-c2nc(CNC(=O)c3ccc(-n4cccn4)nn3)cs2)cc1 | 855 s
38 | Cc1ccsc1C(=O)Nc1cccn2cnnc12 | 666 s
39 | CC1=C(c2ccc(F)cc2)S(=O)(=O)N=C1N1CCCN(C(=O)CCC(C)C)CC1 | 879 s
40 | CCCN(CC1CCOC1)C(=O)Nc1ccc(C)cc1C (configuration not stated) | 811 s
41 | Cc1ccc(Cn2nc3c(S(=O)(=O)N4CCCCCC4)cccn3c2=O)cc1 | 1000 s
42 | O=C(Cn1nc2c(SC3CCCCC3)nccn2c1=O)N1CCN(c2ccccc2)CC1 | 1110 s
43 | CCc1noc(-c2cc(=O)n(CC(=O)Nc3ccccc3Cl)c3ccccc23)n1 | 987 s
44 | CC(C(=O)NCCc1c[nH]c2ccccc12)C1CCN(S(=O)(=O)c2ccc(Cl)s2)CC1 (configuration not stated) | 988 s
45 | O=C(CSC1=N/C(=C/c2ccc3c(c2)OCO3)C(=O)N1c1ccccc1)c1ccccc1 | 1100 s
46 | Cc1nn(C)c(C)c1CCN(C)C(=O)C1Cn2cccc2C(=O)N1CC(C)C (configuration not stated) | 642 s

Row | Compound | RP-LC retention time
47 | CC(=O)Nc1ccc(NC(=O)Cn2ccc3ccc(-c4nnc(C)o4)cc32)cc1 | 652 s
48 | COc1cccc(NC(=O)Nc2cccc(-c3ccc(N4CCOCC4)nn3)c2)c1 | 672 s
49 | O=C(NCCC1CCN(S(=O)(=O)c2ccccc2)CC1)NC1CCCCC1 | 865 s
50 | CCn1ncn2cc(S(=O)(=O)Nc3ccccc3F)cc2c1=O | 830 s
51 | Cc1ccccc1C(=O)NCCN1CCN(c2ccc(Cl)cc2)CC1 | 610 s
52 | CCc1nc2cccnc2n1-c1ccc(C(=O)N(C)C)cc1 | 589 s
53 | CCNC(=O)N1CC(Oc2ccc(-c3nc(-c4ccccc4)no3)cc2)C1 | 945 s
54 | CC1(C(=O)NCc2ccccc2)CN(S(=O)(=O)c2ccccc2)CC(=O)N1C1CC1 (configuration not stated) | 784 s
55 | O=C(CN1C(=O)CCCc2cc(S(=O)(=O)N3CCCCC3)ccc21)Nc1ccc(Cl)cc1 | 990 s
56 | Cc1nn(CC(=O)N2CCN(c3ccccn3)CC2)c(=O)c2nc(-c3ccccc3)sc12 | 632 s
57 | O=C(NCC1CC1)C1CCCN(c2cnc3nccnc3c2)C1 (configuration not stated) | 643 s
58 | CCN(CC)C(=O)c1ccc2c(c1)N(CC(=O)NC(C)C)C(=O)C1CCCCN21 (configuration not stated) | 735 s
59 | O=C(Cn1nc2c(N3CCCCCC3)nccn2c1=O)NCCC1=CCCCC1 | 784 s
60 | Cc1cc(N2CCOCC2)n2nc(CN3CCC(Cc4ccccc4)CC3)nc2n1 | 641 s
61 | Cc1ccccc1-c1noc(Cn2ccn(Cc3ccc(Cl)cc3)c(=O)c2=O)n1 | 943 s
62 | COc1ccc(CCS(=O)(=O)NCC2(O)CCOCC2)cc1 | 758 s
63 | O=C(NCCCN1CCCC1)c1cccc(N2CCNC(c3ccccc3)C2)n1 (configuration not stated) | 694 s
64 | CC(C)CN1C(=O)c2cccn2CC1C(=O)NCCCOC(C)C (configuration not stated) | 718 s
65 | CCOc1cc(=O)n2c(c1C(=O)Nc1cc(C)cc(C)c1)CCCC2 | 791 s
66 | O=C(CCC1CCCC1)N1CCN(C(=O)c2cc(-c3ccccn3)n[nH]2)CC1 | 715 s
67 | Cc1cc(Nc2nc(N[C@@H](C)c3ncc(F)cn3)ncc2Cl)n[nH]1 | 622 s
